The text below walks through data of patent EP2284541A1, “Fluorescence-based imaging and analysis of cells and cellular components using lipophilic dyes with improved specificity, spectral property and photostability” (Max-Planck-Gesellschaft zur Förderung der Wissenschaften …, priority 2009, dated 2011).

The nature of series [1]: Comparative lipophilicity: log P by direct solvent partitioning, measured in the fluorometer. It counts as physicochemical. As to conditions: for log P: average, dye 0.1 µg/ml; for Δlog P: LD540 versus Bodipy 493/503. As to the method: Dyes were dissolved in octanol-saturated water or oil-saturated methanol at a concentration of 0.1 μg/ml, measured in the fluorometer and shaken with an equal volume of water-saturated octanol or methanol-saturated oil for 20 min. Phases were separated by centrifugation. For octanol/water coefficients, the concentration of dye in the water phase was measured and used for calculations of log P. For the oil/methanol system, 10 μl samples of both phases were taken, diluted into 990 μl of isopropanol and measured in the fluorometer. The ratio was used for calculation of log p. Values obtained in the octanol/water system indicated higher lipophilicity of LD540. Since log P values larger 3 obtained by direct solvent partitioning are prone to errors, we also measured in the immiscible pair sunflower oil/methanol, where log p values for lipophilic substances are much smaller and less error prone. […] All values are average +/- […] values were determined by Students t-test.

Series [2] is described as follows: Spectral characteristics (excitation and emission maxima) in various solvents and in stained cells, spectrofluorometer. The series is classed as physicochemical. As to the method:
Spectra were measured on a Jobin Yvon Fluoromax3 spectrofluorometer at 3 x 10^-7 M. Differentiated 3T3-L1 cells were stained with 0.2 µg/ml LD540 in DMEM + 10% FCS for 30 min, followed by three washes. Cells were trypsinized, suspended at 100.000 cells/ml in PBS and measured in a fluorescence cuvette.
^#Note that the excitation maximum fits to the one reported in U.S. Patent No. 5,446,157, while the emission maximum in said reference was indicated to be 560 nm.

The nature of series [3]: Photobleaching of dyes in sunflower oil under constant illumination in a photometer cuvette. It counts as physicochemical. Particulars: 0.1 µg/ml in sunflower oil; constant irradiation at absorption maximum. On the procedure:
In a first experiment, the different dyes to be compared (LD540, Nile Red and Bodipy 493/503) were dissolved at 0.1 µg/ml in sunflower oil (which represents the cellular environment of the dyes) and constantly irradiated in a photometer cuvette at their respective absorption maximum. Excitation energy was equal for all three dyes. Every 15 seconds, fluorescence emission was recorded. […] The slope of the curves are directly proportional to the respective rate of photobleaching. Under these conditions, LD540 bleaches 3-times slower than Nile Red and 15-times slower than Bodipy 493/503.

The conditions of series [4]: reported in U.S. Patent No. 5,446,157; cited from earlier work.
Series [5] is described as follows: Spectral characteristics (excitation and emission maxima) in various solvents and in stained cells, spectrofluorometer. The series is classed as physicochemical. Particulars: Ethanol, 2 x 10^-4 M.
[6] abbreviates: Oil/methanol (sunflower oil), n = 3.
Where [7] appears, read: 3T3-L1 cells stained with 0.2 µg/ml LD540, suspended in PBS.

Where “and” joins values, the source holds several entries; their conditions need not be identical. Equal entries are not always repeated. Where two headings read alike, the source gives them in different places.

The term log P denotes the decadic logarithm of the partition coefficient of the neutral form, usually between octanol and water. Regarding `CC1=CC(C)=[N+]2C1=C(C)c1c(C)cc(C)n1[B-]2(F)F` [Bodipy 493/503, reference compound], the “log P” value in series [1] (Octanol/water, n = 7) is recorded as 3.50; in series [1] (setting [6]), 0.31.

With `CC1=C2C=C3CCCCC3=[N+]2[B-](F)(F)n2c1cc1c2CCCC1` [LD540], the figures for the “Δlog P” value in series [1] (Octanol/water) and in series [1] (Oil/methanol) were 0.88 and 0.44, respectively. For the same molecule, the “log P” value is on record as 4.38 in series [1] (Octanol/water, n = 7) and 0.75 in series [1] (setting [6]). For the same molecule, the Λ max exc in series [2] (setting [7]) was 540 nm and 540.2 nm; in series [2] (Ethanol, 3 x 10^-7 M), 536.0 nm; in series [2] (Hexane, 3 x 10^-7 M) it was 539.7 nm; in series [2] (Sunflower oil, 3 x 10^-7 M), 540.2 nm; in series [2] (Water, 3 x 10^-7 M), 534.8 nm. The λ max em in series [2] (setting [7]) is 545 nm and 545.0 nm; in series [2] (Ethanol, 3 x 10^-7 M), 542.5 nm; in series [2] (Hexane, 3 x 10^-7 M) it was 542.2 nm; in series [2] (Sunflower oil, 3 x 10^-7 M), 545.2 nm; in series [2] (Water, 3 x 10^-7 M), 542.4 nm. In addition, the “bleaching, times slower than Nile Red” value in series [3] turned out to be 3. The emission maximum is 560 nm in series [4], 550 nm in series [5] (1 mm cuvette) and 557 nm in series [5] (4 mm cuvette). Also, in series [4], the excitation maximum was 535 nm.
